# Test results published in US20160052918A1, “SMALL COMPOUNDS TARGETING TACC3” (JAPANESE FOUNDATION FOR CANCER RESEARCH, priority 2012, published 2016).
# Columns and labels:
# [1] = test system: SKOV-3 cells expressing EGFP-α-tubulin; experiment: Mitotic arrest of synchronized EGFP-α-tubulin-expressing SKOV-3 cells, time-lapse single-cell analysis; type: cell-based; conditions: for EC50: Homo sapiens, SK-OV-3, 72 h, mitotic arrest, EC50=50% arrest rate, double thymidine block, time-lapse 3 days, at least 50 cells, read-out: SKOV3 EC50; for inhibitory effects on cell growth: summary of Table 2 (SKOV-3 mitotic arrest and lymphoma cell death)
# Procedure: The EGFP-α-tubulin-expressing cells used in the assay will be described. In order to observe mitosis under a fluorescence microscope, cells expressing EGFP-α-tubulin (fusion protein of a fluorescent protein, EGFP, and α-tubulin) were prepared. A system observable under a fluorescence microscope without cell fixation was prepared.
# Ovary cancer cells SKOV-3 were cultured in an RPMI1640 medium supplemented with 5% fetal bovine serum. Stable cells expressing EGFP-α-tubulin were transduced by lentiviral transduction using pLenti4/V5-DEST vectors (Registered Trade Mark) (manufactured by Invitrogen Corp.) and selected by the FACS sorting of infected cells using Zeocin (Registered Trade Mark) and subsequent FACSAria (Registered Trade Mark) (Becton, Dickinson and Company).
# The compounds NPD2448, NPD2568, NPD3574, NPD4089, and C7—O-propylated NPD3574 were each added at varying concentrations to the culture medium of SKOV-3 cells expressing EGFP-α-tubulin and analyzed for their effect on cell division.
# The SKOV-3 cells expressing EGFP-α-tubulin were synchronized by thymidine block to analyze the effect on cell division of each compound. As shown in the upper part of FIG. 2, each compound was added to the culture medium after the 1st thymidine block. After synchronization by the second thymidine block, images were taken every 2 minutes for 3 days using Leica AF6000 and ×20/0.5 Plan Fluotar objective lens in a phenol red-free RPMI1640 medium supplemented with 5% fetal bovine serum. These time-lapse images were analyzed using ImageJ 1.42a software, and the time of mitotic arrest was determined by visual judgment. The duration of mitosis was manually determined from the image sequences of at least 50 cells.
# The mitotic arrest (EC50=50% arrest rate) was tested by the microscopic analysis of individual single cells.
# EGFP-α-tubulin-expressing SKOV-3 cells synchronized by double thymidine block in the same way as in Example 2 were treated with each synthesized compound and subjected to time-lapse photography for 3 days. At least 50 cells were observed. The time of arrest of each cell was calculated, and EC50 was determined therefrom.
# EGFP-α-tubulin-expressing SKOV-3 cells supplemented with each of SPL-A and SPL-B at varying concentrations were synchronized by double thymidine block in the same way as in Example 2. Analysis based on single cells was conducted by time-lapse photography. The duration of mitosis was measured from the image sequences of at least 50 cells.
# [2] = test system: mouse lymphoma cell line; experiment: Cell death of lymphoma (survival rate, WST-1); type: cell-based; conditions: 72 h, IC50=50% survival rate, three days
# Procedure: The synthesized compounds were analyzed for their activity against cell death induction using a mouse lymphoma cell line (see Non Patent Literature 12), which was a cell line derived from thymic lymphoma developed in p53KO mouse.
# The number of the lymphoma cells was adjusted to 1.2×10^5 cells/ml. The cells were inoculated at a concentration of 50 μl/well to a 96-well culture dish. A medium containing each RT compound as the novel compound of the present invention at twice the concentration of 50 μl was further added thereto (final concentration: 0.021 to 13.3 μg/ml). Three days after cultivation, the survival rate was calculated using WST-1 reagent (manufactured by F. Hoffmann-La Roche, Ltd.).
# [3] = Solubility remarks of Table 2; type: physicochemical; conditions: Table 2 remark
# [4] = test system: p53-knockout cells derived from human colon cancer cells HCT-116; experiment: Cell growth by WST assay, combined use of SPL-B and paclitaxel; type: cell-based; conditions: HCT-116, 72 h, three days
# Procedure: p53-knockout cells derived from human colon cancer cells HCT-116 were cultured after combined administration of paclitaxel and SPL-B. Three days after cultivation, the survival rate of the cells was measured by WST assay.
smiles,measurement,setting,value
CCCOc1ccc2c(-c3cc4ccccc4oc3=O)cc(=O)oc2c1CN(CCOC)CCOC [RT-013],EC50,[1],> 66.7 µg/mL
O=c1cc(-c2cc3ccccc3oc2=O)c2ccc(O)c(CN3CCC(N4CCCCC4)CC3)c2o1 [RT-014],EC50,[1],8.76 µg/mL
same,inhibitory effects on cell growth,[1],remarkable inhibitory effects on cell growth
same,IC50,[2],8.25 µg/mL
C#CCOc1ccc2c(-c3cc4ccccc4oc3=O)cc(=O)oc2c1CN(CCOC)CCOC [RT-017],EC50,[1],> 66.7 µg/mL
same,Remarks: solubility,[3],Insoluble
O=c1cc(-c2cc3cc(Cl)ccc3oc2=O)c2ccc(O)cc2o1 [RT-018],EC50,[1],> 66.7 µg/mL
same,Remarks: solubility,[3],Poorly soluble in DMSO
O=c1cc(-c2cc3cc(F)ccc3oc2=O)c2ccc(O)c(CN3CCOCC3)c2o1 [RT-019],EC50,[1],0.16 µg/mL
same,inhibitory effects on cell growth,[1],remarkable inhibitory effects on cell growth
same,IC50,[2],0.12 µg/mL
C=CCOc1ccc2c(-c3cc4ccccc4oc3=O)cc(=O)oc2c1CN(CCOC)CCOC [RT-021],EC50,[1],> 66.7 µg/mL
same,Remarks: solubility,[3],Insoluble
COCCN(CCOC)Cc1c(OCC=C(C)C)ccc2c(-c3cc4ccccc4oc3=O)cc(=O)oc12 [RT-022],Remarks: start of mitosis,[1]; At 66.7 μg/ml,"μg/ml, mitosis did not"
same,EC50,[1],> 66.7 µg/mL
same,Remarks: solubility,[3],Insoluble. At 66.7
C=CCOc1ccc2c(-c3cc4ccccc4oc3=O)cc(=O)oc2c1C[N+]([O-])(CCOC)CCOC [RT-023],EC50,[1],> 66.7 µg/mL
COCCN(CCOC)Cc1c(OCC(O)CO)ccc2c(-c3cc4ccccc4oc3=O)cc(=O)oc12 (stereo not drawn) [RT-024],EC50,[1],> 66.7 µg/mL
COCC[N+]([O-])(CCOC)Cc1c(OCC=C(C)C)ccc2c(-c3cc4ccccc4oc3=O)cc(=O)oc12 [RT-025],EC50,[1],> 66.7 µg/mL
COCCN(CCOC)Cc1c(OCC(O)C(C)(C)O)ccc2c(-c3cc4ccccc4oc3=O)cc(=O)oc12 (stereo not drawn) [RT-026],EC50,[1],> 66.7 µg/mL
COCCN(CCOC)Cc1c(O)ccc2c(-c3cc4cc(Br)ccc4oc3=O)cc(=O)oc12 [RT-028],EC50,[1],6.56 µg/mL
same,inhibitory effects on cell growth,[1],remarkable inhibitory effects on cell growth
same,IC50,[2],3.28 µg/mL
COCCN(CCOC)Cc1c(O)ccc2c(-c3cc4cc(F)ccc4oc3=O)cc(=O)oc12 [RT-029],EC50,[1],0.17 µg/mL
same,inhibitory effects on cell growth,[1],remarkable inhibitory effects on cell growth
same,IC50,[2],0.21 µg/mL
O=c1cc(-c2cc3ccccc3oc2=O)c2ccc(O)cc2o1 [RT-030],EC50,[1],> 66.7 µg/mL
CC(=O)O[C@H]1C(=O)[C@@]2(C)[C@H]([C@H](OC(=O)c3ccccc3)[C@]3(O)C[C@H](OC(=O)[C@H](O)[C@@H](NC(=O)c4ccccc4)c4ccccc4)C(C)=C1C3(C)C)[C@]1(OC(C)=O)CO[C@@H]1C[C@@H]2O [paclitaxel],IC50,[4]; adding SPL-B at 150 μM,7.7 nM
same,IC50,[4]; adding SPL-B at 300 μM,7.54 nM
same,IC50,[4]; in the absence of SPL-B,8.34 nM
